Reference: EP0215300A2, “Use of diazaphosphorines for combating endoparasites” (BAYER AG, priority 1985, dated 1987)

Key:
Caenorhabditis elegans = experiment: In vitro nematode test (inhibition of reproduction); format: cell-based; details: 168 h; concentration at which reproduction is prevented; 7 days at 22°C; E.coli suspension in M9 buffer; read-out: Minimale effektive Dosis
Procedure: 10-^4 g Wirkstoff werden in 1 ml Wasser oder 0,1 ml Dimethylsulfoxid (DMSO) gelöst. Diese Lösung wurde auf eine Replica-Platte gegeben. Dazu wurden 2 ml einer E.coli-Suspension gegeben, zu der man 10-20 weibliche Tiere oder Larven von Caenorhabditis elegans in 0,5 ml sterile M9 Pufferlösung gegeben hat. Die E.coli-Suspension wurde hergestellt indem man 300 ml einer Ubernachtkultur eines Uracil-bedürftigen E.coli-Stammes mit 1,8 1 steriler M9 Pufferlösung versetzte.
Der Versuchsansatz wurde 7 Tage bei 22°C inkubiert und danach ausgewertet. Es wurde bewertet inwieweit der Wirkstoff die Vermehrung beeinträchtigt und die Konzentration angegeben bei der die Vermehrung verhindert wird. Dabei wurden folgende Ergebnisse erhalten: • In vitro Nematodentest

Heterakis spumora = experiment: In vivo nematode test in experimentally infected mice; details: Mus musculus; mice (Mäuse); oral by gavage on four consecutive days from day 32 after infection; killed day 39; at least 95 % of parasites killed; read-out: minimale effektive Dosis
Text: (§1) Experimentell mit Heterakis spumora infizierte Mäuse werden 32 Tage nach der Infektion an vier aufeinanderfolgenden Tagen oral mittels Schlundsonde behandelt. Die Tiere werden 39 Tage nach der Infektion getötet und die Zahl der Parasiten bestimmt. Es wird die Wirkstoffkonzentration angegeben bei der mindestens 95 % der Parasiten abgetötet wurden (minimale effektive Dosis): […]

Hymenolepis nana = experiment: as above; details: Rodentolepis nana; mice (Mäuse); oral by gavage on four consecutive days from day 10 after infection; killed day 17; at least 95 % of parasites killed; read-out: minimale effektive Dosis
Text: Experimeltell mit Hymenolepis nana infizierte Mäuse werden 10 Tage nach der Infektion an vier aufeinanderfolgenden Tagen oral mittels Schlundsonde behandelt. Die Tiere werden 17 Tage nach Infektion getötet und die Zahl der Parasiten bestimmt. Es wird die Wirkstoffkonzentration angegeben, bei der mindestens 95 % der Parasiten abgetötet wurden (minimale effektive Dosis): […]

Strongyloides ratti = experiment: In vivo nematode test in experimentally infected rats; details: rats (Ratten), oral by gavage on three consecutive days from day 7 after infection, killed day 13, at least 95 % of parasites killed, read-out: minimale effektive Dosis
Text: as §1, with “Strongyloides ratti” for “Heterakis spumora”, “Ratten” for “Mäuse”, “7” for “32”, “drei” for “vier”, “13” for “39”, “angegeben,” for “angegeben”

SMILES | minimal effective concentration (Caenorhabditis elegans) | also measured
CN1C(=O)C(C(=O)Nc2cccc(C(F)(F)F)c2)C(=O)N(C)P1(=O)Oc1ccc(Cl)cc1 (stereo not shown) [Beispiel 1] | 10 µg/mL | 
Cc1cccc(OP2(=O)N(C)C(=O)C(C(=O)Nc3cccc(C(F)(F)F)c3)C(=O)N2C(C)C)c1 (stereo not shown) [Beispiel 27] | 10 µg/mL | 
CC(C)N1C(=O)C(C(=O)Nc2ccc(C(F)(F)F)cc2)C(=O)N(C)P1(=O)Oc1cccc(Cl)c1 (stereo not shown) [Beispiel 17] | 10 µg/mL | 
O=C(Nc1ccc(Cl)c(Cl)c1)C1C(=O)N(c2ccccc2)P(=O)(Oc2ccc(Cl)cc2)N(c2ccccc2)C1=O (stereo not shown) [Beispiel 13] | 10 µg/mL | 
CN1C(=O)C(C(=O)Nc2cccc(C(F)(F)F)c2)C(=O)N(C)P1(=O)Oc1cccc(Cl)c1 (stereo not shown) [Beispiel 36] | 10 µg/mL | 
CN1C(=O)C(C(=O)Nc2ccc(Cl)c(Cl)c2)C(=O)N(c2ccccc2)P1(=O)Oc1ccc(Cl)cc1 (stereo not shown) [Beispiel 37] | 10 µg/mL | 
CC(C)N1C(=O)C(C(=O)Nc2cccc(Cl)c2)C(=O)N(C(C)C)P1(=O)Oc1cccc(Cl)c1 (stereo not shown) [Beispiel 2] | 100 µg/mL | 
CN1C(=O)C(C(=O)Nc2cccc(Cl)c2)C(=O)N(C)P1(=O)Oc1ccc(Cl)cc1 (stereo not shown) [Beispiel 12] | 100 µg/mL | 
CC(C)N1C(=O)C(C(=O)Nc2cccc(C(F)(F)F)c2)C(=O)N(C)P1(=O)Oc1cccc(Cl)c1 (stereo not shown) [Beispiel 22] | 10 µg/mL | minimal effective dose (Heterakis spumora): 250 mg/kg; minimal effective dose (Hymenolepis nana): 250 mg/kg
CCN1C(=O)C(C(=O)Nc2cccc(C(F)(F)F)c2)C(=O)N(C)P1(=O)Oc1cccc(Cl)c1 (stereo not shown) [Beispiel 20] | 10 µg/mL | minimal effective dose (Strongyloides ratti): 250 mg/kg
Cc1cccc(OP2(=O)NC(=O)C(C(=O)Nc3cccc(C(F)(F)F)c3)C(=O)N2C)c1 (stereo not shown) [Beispiel 34] | 100 µg/mL | 
Cc1cccc(OP2(=O)N(C)C(=O)C(C(=O)Nc3cccc(Cl)c3)C(=O)N2C(C)C)c1 (stereo not shown) [Beispiel 28] | 100 µg/mL | 
CN1C(=O)C(C(=O)Nc2ccc(Cl)cc2)C(=O)N(C)P1(=O)Oc1ccc(Cl)cc1 (stereo not shown) [Beispiel 10] | 1 µg/mL | 
CN1C(=O)C(C(=O)Nc2ccc(C(F)(F)F)cc2)C(=O)N(C)P1(=O)Oc1ccccc1 (stereo not shown) [Beispiel 8] | 10 µg/mL | minimal effective dose (Strongyloides ratti): 25 mg/kg
Cc1cccc(OP2(=O)N(C)C(=O)C(C(=O)Nc3ccc(Cl)c(Cl)c3)C(=O)N2C(C)C)c1 (stereo not shown) [Beispiel 35] | 10 µg/mL | 
CC(C)N1C(=O)C(C(=O)Nc2cccc(C(F)(F)F)c2)C(=O)N(C(C)C)P1(=O)Oc1cccc(Cl)c1 (stereo not shown) [Beispiel 3] | 100 µg/mL | 
CC(C)N1C(=O)C(C(=O)Nc2cccc(Cl)c2)C(=O)N(C)P1(=O)Oc1cccc(Cl)c1 (stereo not shown) [Beispiel 18] | 10 µg/mL | 
CN1C(=O)C(C(=O)Nc2ccc(C(F)(F)F)cc2)C(=O)N(C)P1(=O)Oc1ccc(Cl)cc1 (stereo not shown) [Beispiel 6] | 1 µg/mL | 
CN1C(=O)C(C(=O)Nc2cccc(Cl)c2)C(=O)N(C)P1(=O)Oc1cccc(Cl)c1 (stereo not shown) [Beispiel 11] | 1 µg/mL | minimal effective dose (Strongyloides ratti): 10 mg/kg
O=C(Nc1ccc(Cl)c(Cl)c1)C1C(=O)N(c2ccccc2)P(=O)(Oc2ccccc2)N(c2ccccc2)C1=O (stereo not shown) [Beispiel 14] | 100 µg/mL | 
